“And” between values parts separate entries of the source, which are not always exact repeats. Identical values can stand only once.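 Following 48 hours of exposure in 96-well plates, responses at five concentrations were used to interpolate endpoints linearly. GI50 marks 50% less growth. TGI is the concentration that stops growth completely.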
Assays:
Experiment in all cases: NCI-60 cell line screen, 48 h
[1] = tested on: KM20L2 colon
[2] = tested on: SK-MEL-2 melanoma
[3] = tested on: CAKI-1 renal
[4] = tested on: HCC-2998 colon
[5] = tested on: HL-60(TB) leukemia
[6] = tested on: HCT-15 colon
[7] = tested on: SK-OV-3 ovarian
[8] = tested on: SNB-78 CNS
[9] = tested on: HS 578T breast
[10] = tested on: OVCAR-8 ovarian

Row | Structure (SMILES) | GI50 [1] [µM] | TGI [1] [µM] | GI50 [2] [µM] | TGI [2] [µM] | GI50 [3] | TGI [3] [µM] | GI50 [4] | TGI [4] | GI50 [5] | TGI [5] | GI50 [6] | TGI [6] [µM] | GI50 [7] | TGI [7] [µM] | GI50 [8] [µM] | TGI [8] [µM] | GI50 [9] | TGI [9] [µM] | GI50 [10] | TGI [10] [µM]
1 | CC1=Cc2cc3[n-]c(cc4nc(cc5[n-]c(cc1n2)cc5C)C(C)=C4CCC(=O)O)c(CCC(=O)O)c3C.[Pd+2] | 17.5 | 44.3 | 18.7 | 44 | 27 µM | 48.6 | 10.2 µM | 28.8 µM | 7.21 µM | 14.2 µM | 18.4 µM | 42.5 | 11.5 µM | 30.1 | 6.17 | 28.7 | – | – | – | –
2 | C=C1C(=O)O[C@H]2[C@H]1CC/C(Cn1cc(-c3ccccc3)nn1)=C\CC[C@@]1(C)O[C@@H]21 | – | – | 5.5 | 12.5 | 1.28 µM | 4.83 | 6.16 µM | 13 µM | 1.49 µM | 5.64 µM | 0.769 µM | 1.68 | 9.95 µM | 17.9 | – | – | 9.78 µM | 29.6 | 2.31 µM | 8.88
3 | CC(C(=O)Oc1ccc2ccccc2c1-c1c(O)ccc2ccccc12)c1ccccc1 (stereo not given) | – | – | – | 29.7 | – | 24 | – | 28.9 µM | – | 35.1 µM | – | 27.2 | – | 29.6 | – | 33.9 | – | – | – | 50.2
4 | O=C1c2ccccc2-c2c1c1ccccc1c(=O)n2CCNCCNCCn1c2c(c3ccccc3c1=O)C(=O)c1ccccc1-2 | – | – | 19.1 | > 48.2 | 0.527 µM | 18.4 | 0.279 µM | 14.9 µM | 98.5 µM | > 100 µM | 0.0545 µM | 1.31 | 12.8 µM | 36.2 | – | – | 4.28 µM | 38.5 | 0.226 µM | 2.29
5 | C[C@H]1CCC/C=C/[C@@H]2C[C@H](O)C[C@H]2[C@H](O)[C@@H](S(=O)CCN(C)C)CC(=O)O1 (stereo not given in full) | – | – | 0.223 | – | 0.389 µM | – | 0.386 µM | > 100 µM | 0.303 µM | > 100 µM | 0.363 µM | > 57.9 | 0.295 µM | > 67.6 | – | – | 0.0646 µM | > 40.8 | 0.0966 µM | –
6 | CCOC(=O)C(C)c1cc(C2(C)OCCO2)c(C)o1 (stereo not given) | – | > 100 | – | > 100 | – | – | – | > 100 µM | – | > 100 µM | – | > 100 | – | > 100 | – | > 100 | – | – | – | > 100
7 | Cc1[nH]c(/C=C2\C(=O)Nc3ccc(F)cc32)c(C)c1C(=O)NC[C@H](O)CN1CCOCC1 | – | – | 2.16 | 8.68 | 1.66 µM | > 10 | 5.17 µM | > 10 µM | 1.03 µM | 5.43 µM | 2.83 µM | > 10 | 2.95 µM | > 10 | – | – | 2.12 µM | > 10 | 5.41 µM | > 10
8 | C/C=C(\C)C(=O)O[C@H]1C=CC(=O)O[C@H]1CNC(=O)[C@H](C)O | – | – | 20.1 | 51 | 26.8 µM | 44.4 | 17.7 µM | 33.7 µM | 16.8 µM | 39.3 µM | 15.6 µM | 32 | 52.1 µM | > 100 | – | – | 18.6 µM | 47.2 | 24.3 µM | 65.9
9 | COc1c(O)ccc2c1CN1CCc3cc4c(cc3C1C2)OCO4 (stereo not given) | – | – | – | > 92.9 | – | > 100 | – | > 100 µM | – | > 100 µM | – | > 100 | – | > 100 | – | – | – | > 100 | – | > 100
10 | O=C1CCC2(C=C(Br)C(=O)C(Br)=C2)O1 | – | – | 15 | 30.3 | 0.611 µM | 1.91 | 18.7 µM | 33.5 µM | 1.4 µM | 6.18 µM | 2.77 µM | 8.76 | 17.4 µM | 31.3 | – | – | 20.4 µM | 57.3 | 3.45 µM | 11.5
11 | CCN(CC)CCCCCCCNc1c2ccc(Cl)cc2nc2ccc(OC)cc12 | – | – | 1.56 | 3.77 | 1.55 µM | 4.65 | 1.76 µM | 3.22 µM | 1.71 µM | 3.62 µM | 0.997 µM | 6.59 | 1.41 µM | 3.58 | – | – | 1.79 µM | 4.39 | 0.628 µM | 2.9
12 | Cc1ccc2c(=O)c3cccc(CC(=O)O)c3oc2c1C | – | – | > 100 | > 100 | > 100 µM | > 100 | > 100 µM | > 100 µM | > 100 µM | > 100 µM | > 100 µM | > 100 | > 100 µM | > 100 | – | – | > 100 µM | > 100 | > 100 µM | > 100
13 | COc1ccc(-c2cn[nH]c2-c2cc(OC)c(OC)c(OC)c2)cc1N | – | – | – | > 100 | < 0.01 µM and 0.0324 µM | > 100 | < 0.01 µM and 0.0317 µM | 93.6 µM and 32.1 µM | < 0.01 µM and 0.0248 µM | < 0.01 µM and 0.0834 µM | < 0.01 µM and 0.0298 µM | > 100 | < 0.01 µM and 0.0833 µM | > 100 | – | – | < 0.01 µM and 0.0233 µM | > 100 | < 0.01 µM and 0.0519 µM | > 100
14 | CC(=O)N1c2ccccc2Sc2cc(C(O)(C(F)(F)F)C(F)(F)F)ccc21 | – | – | – | > 10 | – | > 10 | – | > 10 µM | – | > 10 µM | – | > 10 | – | > 10 | – | – | – | > 10 | – | > 10
15 | S=C(N/N=C/c1ccccn1)Nc1ccccn1 | – | – | 2.35 | 9.74 | 1.31 µM | > 100 | 2.19 µM | > 100 µM | 0.316 µM | 1.25 µM | 0.575 µM | > 100 | 2.29 µM | > 100 | – | – | 4.8 µM | > 100 | 0.671 µM | > 100
16 | O=C(NOCC1CC1)c1ccc(F)c(F)c1Nc1ccc(I)cc1Cl | – | – | 0.166 | 2.05 | 2.75 µM | > 100 | 0.178 µM | 2.69 µM | 0.19 µM | 8.26 µM | 1.57 µM | > 32.7 | 4.35 µM | > 100 | – | – | 4.85 µM | > 92 | 2.32 µM | 20.6
